# According to patent US10899769B2, “Imidazopiperazinone inhibitors of transcription activating proteins” (Board of Regents, The University of Texas System, priority 2018, dated 2021):
# Tests used:
# [1] = target: GST-CBP(1081-1197) bromodomain (Homo sapiens (Human), UniProt Q92793); experiment: CBP AlphaScreen Assay; details: binding to biotin-H4(1-21) Ac-K5/8/12/16
# Description: (§1) Specific binding of the CBP or BRD4 bromodomain to the acetylated peptide derived from the H4 histone substrate (tetra acetylated H4(1-21) Ac-K5/8/12/16) was measured in absence or presence of inhibitors. The GST tagged bromodomains of CBP (1081-1197) and BRD4 (49-170) were obtained from BPS Bioscience and binding to the biotinylated H4(1-21) Ac-K5/8/12/16 (AnaSpec. 64989) was assessed via AlphaScreen technology (Perkin Elmer).
# (§2) 5 nM GST-CBP(1081-1197) and 20 nM biotin-H4(1-21) Ac-K5/8/12/16 (AnaSpec. 64989) were incubated with varying concentrations of CBP inhibitors in 15 μL of buffer containing 50 mM HEPES 7.5, […], 1 mM TCEP, and 0.003% Tween-20. After 30 minutes incubation at room temperature, 15 μL of detection buffer (BPS Bio. 33006) containing 7 μg/mL of Glutathione AlphaLisa acceptor beads (Perkin Elmer AL109) and 14 μg/mL of Streptavidin donor beads (Perkin Elmer 676002) was then added to the previous mixture. The reaction was incubated for an additional 2 hours at room temperature, and the AlphaScreen signal was quantified using the Envision Multilabel plate reader. As negative control, GST-CBP(1081-1197) was incubated with the non-acetylated biotin-H4(1-21) peptide(AnaSpec. 62555) and in presence of 0.25% of final DMSO concentration.
# (§3) the binding of 2.5 nM of BRD4(49-170) to 10 nM biotin-H4(1-21) Ac-K5/8/12/16 (AnaSpec. 64989) was assessed following the same procedure described for the CBP assay. The standard dose response curves were fitted by Genedata Screener software using the variable-slope model: Signal=Signalnegative control+(SignalDMSO control−Signalnegative control)/(1+(IC50/Dose)^Hill slope).
# (§4) Only Signal and Dose in the equation were treated as know values.
# BRD4(49-170) bromodomain = BRD4(49-170) bromodomain (Homo sapiens (Human), UniProt O60885); experiment: BRD4 AlphaScreen Assay; details: binding to biotin-H4(1-21) Ac-K5/8/12/16
# Description: as §1, §2, §3, §4
# GST-CBP(1081-1197) bromodomain, sequence (Q92793 1081-1197): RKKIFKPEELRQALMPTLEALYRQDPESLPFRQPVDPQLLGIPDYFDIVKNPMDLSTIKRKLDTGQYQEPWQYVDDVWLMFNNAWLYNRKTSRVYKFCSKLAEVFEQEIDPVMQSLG
SMILES,IC50 [1] [nM],IC50 (BRD4(49-170) bromodomain) [nM]
"CC1C(=O)N(C)Cc2c(-c3ccn4cncc4c3)nc(C3CC3)n21 (centres unmarked) [Example 57, 3-cyclopropyl-1-(imidazo[1,5-a]pyridin-7-yl)-5,7-dimethyl-7,8-dihydroimidazo[1,5-a] pyrazin-6(5H)-one]",1070,2610
"Cc1cn(-c2cc3cccc(-c4nc(C5CCOCC5)n5c4CN(C)C(=O)C5C)c3cn2)cn1 (single isomer, unassigned) [Example 30b, 5,7-dimethyl-1-(3-(4-methyl-1H-imidazol-1-yl)isoquinolin-8-yl)-3-(tetrahydro-2H-pyran-4-yl)-7,8-dihydroimidazo[1,5-a]pyrazin-6(5H)-one]",373,18600
"Cc1c(-c2cc3cccc(-c4nc(C5CC5)n5c4CN(C)C(=O)C5C)c3cn2)cnn1C (centres unmarked) [Example 59, 3-cyclopropyl-1-(3-(1,5-dimethyl-1H-pyrazol-4-yl)isoquinolin-8-yl)-5,7-dimethyl-7,8-dihydroimidazo[1,5-a] pyrazin-6(5H)-one]",4,496
"Cc1nn(C)cc1-c1cc2cccc(-c3nc(C4CC4)n4c3CN(C)C(=O)C4C)c2cn1 (centres unmarked) [Example 63, 3-cyclopropyl-1-(3-(1,3-dimethyl-1H-pyrazol-4-yl)isoquinolin-8-yl)-5,7-dimethyl-7,8-dihydroimidazo[1,5-a] pyrazin-6(5H)-one]",1,76
"CC1C(=O)N(C)Cc2c(-c3cccc4cc(-c5ccn(C)n5)ncc34)nc(C3CCOCC3)n21 (centres unmarked) [Example 85, 5,7-dimethyl-1-(3-(1-methyl-1H-pyrazol-3-yl)isoquinolin-8-yl)-3-(tetrahydro-2H-pyran-4-yl)-7,8-dihydroimidazo[1,5-a] pyrazin-6(5H)-one]",78,24100
"CN1Cc2c(-c3c(F)ccc4cc(C5CCOCC5)ncc34)nc(C3CCOCC3)n2CC1=O [Example 101, 1-(7-fluoro-3-(tetrahydro-2H-pyran-4-yl)isoquinolin-8-yl)-7-methyl-3-(tetrahydro-2H-pyran-4-yl)-7,8-dihydroimidazo[1,5-a] pyrazin-6(5H)-one]",219,25000
"CC1C(=O)N(C)Cc2c(-c3cccc4nc(-c5cnn(C)c5)c(C#N)cc34)nc(C3CC3)n21 (single isomer, unassigned) [Example 56b, 5-(3-cyclopropyl-5,7-dimethyl-6-oxo-5,6,7,8-tetrahydroimidazo[1,5-a]pyrazin-1-yl)-2-(1-methyl-1H-pyrazol-4-yl)quinoline-3-carbonitrile]",1,132
"CN1Cc2c(-c3cccc4nc(-c5cnn(C)c5)c(C(F)(F)F)cc34)nc(C3CCOCC3)n2CC1=O [Example 95, 7-methyl-1-(2-(1-methyl-1H-pyrazol-4-yl)-3-(trifluoromethyl)quinolin-5-yl)-3-(tetrahydro-2H-pyran-4-yl)-7,8-dihydroimidazo[1,5-a] pyrazin-6(5H)-one]",31,10600
"CC1C(=O)N(C)Cc2c(-c3c(F)ccc4nc(-c5cnn(C)c5)c(C(F)(F)F)cc34)nc(C3CCOCC3)n21 (centres unmarked) [Example 35, 1-(6-Fluoro-2-(1-methyl-1H-pyrazol-4-yl)-3-(trifluoromethyl)quinolin-5-yl)-5,7-dimethyl-3-(tetrahydro-2H-pyran-4-yl)-7,8-dihydroimidazo[1,5-a]pyrazin-6(5H)-one]",1200,25000
"CCC1C(=O)N(C)Cc2c(-c3cccc4nc(-c5cnn(C)c5)c(C(F)F)cc34)nc(C3CCOCC3)n21 (single isomer, unassigned) [Example 64b, 1-(3-(difluoromethyl)-2-(1-methyl-1H-pyrazol-4-yl)quinolin-5-yl)-5-ethyl-7-methyl-3-(tetrahydro-2H-pyran-4-yl)-7,8-dihydroimidazo[1,5-a] pyrazin-6(5H)-one]",46,729
"Cc1c(-c2nc3cccc(-c4nc(C5CC5)n5c4CN(C)C(=O)C5C)c3cc2C(F)F)cnn1C (centres unmarked) [Example 61, 3-cyclopropyl-1-(3-(difluoromethyl)-2-(1,5-dimethyl-1H-pyrazol-4-yl)quinolin-5-yl)-5,7-dimethyl-7,8-dihydroimidazo[1,5-a] pyrazin-6(5H)-one]",4,511
"CN1Cc2c(N3CCCc4cc(-c5cnn(C)c5)c(C(F)F)cc43)nc(C3CC3)n2CC1=O [Example 1, 3-cyclopropyl-1-(7-(difluoromethyl)-6-(1-methyl-1H-pyrazol-4-yl)-3,4-dihydroquinolin-1(2H)-yl)-7-methyl-7,8-dihydroimidazo[1,5-a]pyrazin-6(5H)-one]",7,8810
"Cc1nn(C)cc1-c1cc2cccc(-c3nc(C4CCOCC4)n4c3CN(C)C(=O)C4C)c2cn1 (centres unmarked) [Example 88, 1-(3-(1,3-dimethyl-1H-pyrazol-4-yl)isoquinolin-8-yl)-5,7-dimethyl-3-(tetrahydro-2H-pyran-4-yl)-7,8-dihydroimidazo[1,5-a] pyrazin-6(5H)-one]",1,101
"CC1C(=O)N(C)Cc2c(-c3cccc4cc(C5CCOCC5)ncc34)nc(C3CCOCC3)n21 (single isomer, unassigned) [Example 15a, 5,7-dimethyl-3-(tetrahydro-2H-pyran-4-yl)-1-(3-(tetrahydro-2H-pyran-4-yl)isoquinolin-8-yl)-7,8-dihydroimidazo[1,5-a]pyrazin-6(5H)-one]",170,19700
"CC1C(=O)N(C)Cc2c(-c3cccc4nc(-c5cnn(C)c5)c(C(F)F)cc34)nc(C3CCN(CCO)CC3)n21 (centres unmarked) [Example 84, 1-(3-(difluoromethyl)-2-(1-methyl-1H-pyrazol-4-yl)quinolin-5-yl)-3-(1-(2-hydroxyethyl)piperidin-4-yl)-5,7-dimethyl-7,8-dihydroimidazo[1,5-a] pyrazin-6(5H)-one]",230,11700
"CC1C(=O)N(C)Cc2c(-c3cccc4nc(C5CCOCC5)c(C(F)F)cc34)nc(C3CC3)n21 (centres unmarked) [Example 10, 3-Cyclopropyl-1-(3-(difluoromethyl)-2-(tetrahydro-2H-pyran-4-yl)quinolin-5-yl)-5,7-dimethyl-7,8-dihydroimidazo[1,5-a]pyrazin-6(5H)-one]",2,51
"C[C@@H]1C(=O)N(C)Cc2c(-c3cccc4nc(-c5ccn(C)n5)c(C(F)F)cc34)nc(C3CCOCC3)n21 [Example 89a, (R)-1-(3-(difluoromethyl)-2-(1-methyl-1H-pyrazol-3-yl)quinolin-5-yl)-5,7-dimethyl-3-(tetrahydro-2H-pyran-4-yl)-7,8-dihydroimidazo[1,5-a] pyrazin-6(5H)-one]",1,101
"CC1C(=O)N(C)Cc2c(-c3cccc4nc(-c5noc(=O)[nH]5)c(C(F)F)cc34)nc(C3CC3)n21 (single isomer, unassigned) [Example 45b, 3-(5-(3-Cyclopropyl-5,7-dimethyl-6-oxo-5,6,7,8-tetrahydroimidazo[1,5-a]pyrazin-1-yl)-3-(difluoromethyl)quinolin-2-yl)-1,2,4-oxadiazol-5(4H)-one]",29,5400
"Cc1ccn(-c2cc3cccc(-c4nc(C5CC5)n5c4CN(C)C(=O)C5C)c3cn2)n1 (centres unmarked) [Example 73, 3-cyclopropyl-5,7-dimethyl-1-(3-(3-methyl-1H-pyrazol-1-yl)isoquinolin-8-yl)-7,8-dihydroimidazo[1,5-a] pyrazin-6(5H)-one]",3,408
